Like-named read-outs stand apart in the source and are kept apart here.
Molecular target: T1, Dihydrofolate reductase (DHFR) (Escherichia coli, UniProt P0ABQ4)
T1 construct: gift of Professor Eric Brown (McMaster University)
Format: binding, E. coli
Details: for retention (elution) time: FIG. 19 Panel B, column with 50 pmol DHFR initial loading, compounds infused at 20 nM, fluorescein 100 nM; for elution time: first run
Protocol: A second aqueous solution of 50 mM HEPES at pH 7.5 was prepared containing 16% (w/v) PEO (MW=10 000) and 0.6% (v/v) APTES. This aqueous solution also contained ca. 20 μM of DHFR. […] The mixture underwent spinodal decomposition (phase separation) in about 2-3 min followed by silica polymerization (˜10 min) to generate a hydrated macroporous monolithic column containing entrapped protein. After loading the sol-gel mixture, the monolithic columns were aged for a minimum of 5 days at 4 C and then cut into 10 cm lengths before use. In some cases, the APTES present in the columns was replaced with a final concentration of either 0.03% polyallylamine (PAM, MW 17,000) or 0.3% dimethyldimethoxysilane (DMDMS) to examine the effects of surface derivatization on non-selective retention.
Syringe pumps (Harvard Instruments PhD 2000) were used to deliver solutions, and a flow-switching valve was used to toggle between the assay buffer and the solution containing the compound mixture. This solution was then pumped through the column to achieve equilibrium. Effluent was combined with suitable organic modifiers to assist in the generation of a stable electrospray and detectability of the sprayed components using a triple-quadrupole MS system (Sciex API 3000). This configuration allows for maximum flexibility in compound introduction. Full operation of FAC-MS methods requires frequent flow switching between two solutions connected to the head of the column. An Upchurch microinjection valve allows syringe contents to be exchanged during operation. […] All other connections between components were achieved using fused silica tubing.
Before the first run, the column was flushed with 0.05 M NH4OAc buffer (pH 6.6, 100 mM NaCl) for 30 min at different flow rates (from 1 to 5 μL.min^−1) to remove any glycerol and non-entrapped protein and then equilibrated with 2 mM NH4OAc for 30 min at different flow rates (from 1 to 5 μL.min^−1). All compounds tested were present in 2 mM NH4OAc and were delivered at a rate of 5 μL.min^−1 using the syringe pump. The makeup flow (used to assist in the generation of a stable electrospray) consisted of methanol containing 10% (v/v) NH4OAc buffer (2 mM) and was delivered at 5 μL.min^−1.
In each case, the data were fit to the following equation:^17 [formula]
where V0 is the void volume (μL), V is the retention volume (μL), [A] is the analyte concentration (μM), Kd is the binding constant of the ligand to the protein (μM) and Bt is the total picomoles of active protein in the column.

[1] = FIG. 21 Panel A, in 2 mM ammonium acetate
[2] = FIG. 21 Panel B, second column cut from the same capillary, same infusion

Row | SMILES | retention (elution) time | elution time [1] | elution time [2]
1 | O=c1ccc2ccccc2o1 [coumarin] | 2 min | 2.7 min | 2.6 min
2 | Nc1nc2ncc(CNc3ccc(C(=O)N[C@@H](CCC(=O)O)C(=O)O)cc3)nc2c(=O)[nH]1 [folic acid] | 7 min | 8.9 min | 8.4 min
